According to patent US6558900B2, “Regulation of apoptosis and in vitro model for studies thereof” (Emory University, priority 1996, dated 2003):

Legend:
CPP32 [1] = assay: dATP and cytochrome c-dependent activation of CPP32 in S-100 from human monoblastic U937 cells; assay type: biochemical
Description: (§1) FIG. 8 illustrates dATP and cytochrome c-dependent activation of CPP32 in S-100 cytosol preparations (immunodepleted of cytochrome c) from human embryonic kidney 293 cells and human monoblastic U937 cells. CPP32 activation reactions were carried out as described in FIG. 7 except 25 μg of S-100 was used in each reaction. 1 mM of dATP was present in lanes 2, 4, 6, 8, 10, and 12. Lanes 1 and 2, S-100 fraction from 293 cells; Lanes 3-4, S-100 fraction from 293 cells immunodepleted of cytochrome c; lanes 5 and 6, S-100 fraction from 293 cells immunodepleted of cytochrome c supplemented with 0.2 μg of Apaf-2 purified through the Mono S column step; Lanes 7 and 8, S-100 fraction from U937 cells; […], S-100 fraction from U937 cells immunodepleted of cytochrome c; lanes 11,12, S-100 fraction from U937 cells immunodepleted of cytochrome c supplemented with 0.2 μg of Apaf-2 purified through Mono S column step.
(§2) To investigate whether the dATP and cytochrome c-dependent activation of CPP32 is a general phenomenon, cytosols were prepared from human embryonic kidney 293 cells and human monoblastic leukemia U937 cells.
(§3) 293 cells were set up at 5×10^5 cells per 100 mm dish in medium A [Dulbecco's modified Eagle's medium (DMEM) supplemented with 10% (v/v) heat-inactivated fetal calf serum, 100 U/ml penicillin and 100 μg/ml streptomycin sulfate]. […]

CPP32 [2] = assay: dATP and cytochrome c-dependent activation of CPP32 in S-100 from human embryonic kidney 293 cells; assay type: biochemical
Description: as §1, §2, §3

CPP32 [3] = assay: Reconstitution of dATP-dependent CPP32 activation in HeLa S-100 immunodepleted of cytochrome c; assay type: biochemical, human
Description: Cytochrome c present in the HeLa cell S-100 was immunodepleted as described in the Example 10. In FIG. 7A, 10 μl aliquots of HeLa S-100 (50 μg) (lanes 1 and 2), or 10 μl aliquots of HeLa S-100 immunodepleted of cytochrome c (lanes 3 and 4), or 10 μl of HeLa S-100 immunodepleted of cytochrome c supplemented with 0.2 μg Apaf-2 purified through the Mono S column (H) (lanes 5 and 6), bovine heart cytochrome c (B) (lanes 7 and 8), or rat liver cytochrome c (R) (lanes 9 and 10), were incubated with aliquots of 3 μl in vitro translated, ^35S-labeled CPP32 in the absence (lanes 1, 3, 5, 7, 9) or presence (lanes 2, 4, 6, 8, 10) of 1 mM dATP at 30° C. for 1 hr in a final reaction volume of 20 μl of buffer A. Samples were subjected to SDS-PAGE and transferred to a nitrocellulose filter which were then exposed to film for 16 hr at room temperature. In FIG. 7B, HeLa S-100 (50 μg) immunodepleted of cytochrome c were reconstituted with the indicated amount of Apaf-2 (purified through Mono S column step) in a CPP32 cleavage reaction as described in FIG. 7A. The cleaved products (p20) were quantified in a Fuji-1000 phosphorimager machine and plotted in comparison with that generated by HeLa S-100. In FIG. 7C, aliquots of 50 μl of HeLa S-100 (250 μg) (lanes 1 and 2), or 50 μl of HeLa S-100 immunodepleted of cytochrome c (lanes 3 and 4), or 50 μl of HeLa S-100 immunodepleted of cytochrome c supplemented with 1 μg apaf-2 purified through the Mono S column (H) (lanes 5 and 6), bovine heart cytochrome c (B) (lanes 7 and 8), or rat liver cytochrome c (R) (lanes 9 and 10), were incubated with aliquots of 6 μl hamster liver nuclei in the absence (lanes 1, 3, 5, 7, 9) or presence (lanes 2, 4, 6, 8, 10) of 1 mM dATP at 37° C. for 2 hr in a final reaction volume of 60 μl. The DNA were isolated as described in the Examples, analyzed on 2% agarose gel electrophoresis, and the DNA was visualized by ethidium bromide staining. In FIG. 7D, DNA fragmentation assays were carried out as in FIG. 7C using HeLa S-100 immunodepleted of cytochrome c alone (a,b) or supplemented with Apaf-2 purified through Mono S column step (c,d) in the absence (a,c) or presence of 1 mM dATP (b,d). After 2 hr incubation at 37° C., an aliquot of each reaction (30 μl) was stained with 4′,6′-diamidino-2-phenylindole (DAPI), and observed under a fluorescence microscope with a UV-2A combination filter.
To rule out the possibility that the Apaf-2 activity is due to a minor contaminating protein that co-purified with cytochrome c, an immunodepletion experiment was carried out using a monoclonal antibody against rat cytochrome c. This monoclonal antibody cross-reacts with purified Apaf-2. As shown in FIGS. 7A-7D, HeLa cell S-100 depleted of cytochrome c using the monoclonal anti-cytochrome c antibody lost the dATP-dependent activation of CPP32 and the ability to induce DNA fragmentation in the added nuclei (FIGS. 7A and 7C, lanes 3 and 4). Adding back either the purified Apaf-2 from HeLa cells or the commercial cytochrome c from bovine heart or rat liver to the immunodepleted extracts restored the dATP-dependent activation of CPP32 and DNA fragmentation (FIGS. 7A and 7C, lanes 5-10). The reconstitution of cytochrome c dependent-activation of CPP32 was evident with the addition of 0.01 μg (33 nM) of purified cytochrome c to the cytochrome c-depleted extracts (FIG. 7B).
CPP32 was translated and purified as described above. Aliquot of 3 μl of the in vitro translated CPP32 was incubated with the indicated protein fraction, nucleotides, and 1 mM additional MgCl2 at 30° C. for 1 hour in a final volume of 20 μl of buffer A. At the end of the incubation, 7 μl of 4×SDS sample buffer was added to each reaction. After boiling for 3 min, each sample was subjected to a 15% SDS-polyacrylamide gel electrophoresis (SDS-PAGE). The gel was transferred to a nitrocellulose filter which was subsequently exposed to a Kodak X-OMAT AR X-ray film (Eastman Kodak, Rochester, N.Y.) for 16 hr at room temperature. […]

[4] = added to cytochrome c-depleted extracts

Molecule | dATP-dependent CPP32 activating activity of S-100 (CPP32 [1]; U937 cell S-100, 1 mM dATP) | dATP-dependent CPP32 activating activity of S-100 (CPP32 [2]; 293 cell S-100, 1 mM dATP) | restoration of CPP32 activating activity (CPP32 [1]; U937 cell S-100 immunodepleted of cytochrome c, 0.2 μg, 1 mM dATP) | restoration of dATP-dependent activation of CPP32 (CPP32 [3]; 0.2 μg added to immunodepleted HeLa S-100, 1 mM dATP) | amount at which reconstitution of CPP32 activation was evident (CPP32 [3]; [4]) [µg] | concentration at which reconstitution of CPP32 activation was evident (CPP32 [3]; [4]) [nM] | recovered control activity (p20 cleaved product vs HeLa S-100) (CPP32 [3]; addition of 0.3 μg) | restoration of CPP32 activating activity (CPP32 [2]; 293 cell S-100 immunodepleted of cytochrome c, 0.2 μg, 1 mM dATP)
Nc1ncnc2c1ncn2[C@H]1C[C@H](O)[C@@H](COP(=O)(O)OP(=O)(O)OP(=O)(O)O)O1 [dATP, deoxyadenosine-5-triphosphate] | contained a dATP-dependent CPP32 activating activity | contained a dATP-dependent CPP32 activating activity | – | – | – | – | – | –
Apaf-2: 15 kDa factor bound to phosphocellulose column, purified from HeLa S-100, identified as human cytochrome c | – | – | restored the activity | restored | 0.01 | 33 | more than 100% | restored the activity
